In one assay the target is T1, human SGLT1 (Homo sapiens, UniProt P13866).
T1 construct: expressed in transfected cells
T1 sequence (P13866 1-664): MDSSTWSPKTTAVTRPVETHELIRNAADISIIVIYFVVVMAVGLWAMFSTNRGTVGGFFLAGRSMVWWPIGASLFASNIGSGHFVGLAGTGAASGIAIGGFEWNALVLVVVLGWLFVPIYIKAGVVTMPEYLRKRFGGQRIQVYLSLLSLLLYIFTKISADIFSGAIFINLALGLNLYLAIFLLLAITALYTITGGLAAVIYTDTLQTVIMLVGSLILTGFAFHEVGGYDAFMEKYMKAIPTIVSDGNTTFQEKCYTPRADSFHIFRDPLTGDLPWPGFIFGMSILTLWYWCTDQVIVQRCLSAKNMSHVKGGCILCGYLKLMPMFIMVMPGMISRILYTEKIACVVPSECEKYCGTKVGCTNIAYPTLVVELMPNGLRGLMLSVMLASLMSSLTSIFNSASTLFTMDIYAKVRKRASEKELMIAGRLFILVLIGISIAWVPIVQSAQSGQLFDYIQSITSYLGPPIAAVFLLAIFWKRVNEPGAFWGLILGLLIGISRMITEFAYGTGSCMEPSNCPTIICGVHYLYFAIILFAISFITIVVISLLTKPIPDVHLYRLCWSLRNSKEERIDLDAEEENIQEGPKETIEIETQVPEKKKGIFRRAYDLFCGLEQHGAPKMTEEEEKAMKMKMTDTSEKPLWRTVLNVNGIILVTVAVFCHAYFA
The assay is described as follows: Assay for inhibitory effects on human SGLT1 activity (uptake of methyl-α-D-glucopyranoside in CS1-5-11D cells). Type of assay: cell-based. To be noted: CHO-K1 cells stably expressing human SGLT1 (CS1-5-11D); 1 mM α-MG uptake, 37° C., 1 hour. The procedure: Assay for Inhibitory Effects on Human SGLT1 Activity
1) Cloning and Construction of the Vector Expressing Human SGLT1
The cDNA library was prepared for PCR amplification by reverse transcription from total RNA deprived from human small intestine (Ori gene) using oligo-dT as a primer. Using this cDNA library as a template, the DNA fragment coding 1 to 2005 bp of human SGLT1 (ACCESSION: M24847), which was reported by Hediger et al., was amplified by PCR method and inserted into the multi-cloning site of pcDNA3.1(−) (Invitrogen). The DNA sequence inserted was perfectly matched to the previously reported sequence.
2) Establishment of Cell Line Stably Expressing Human SGLT1
The expression vector of human SGLT1 was digested by Sca I into a linear DNA. The linear DNA was transfected into CHO-K1 cells by means of lipofection (Effectene Transfection Reagent: QIAGEN). Neomycin resistant cell lines were selected by culture in the medium containing G418 (1 mg/mL, LIFE TECHNOLOGIES), and then the activity against the uptake of methyl-α-D-gluco-pyranoside was measured by the method described below. […] CS1-5-11D cells were cultured in the presence of G418 at 200 μg/mL.
3) Measurement of the Inhibitory Activity Against the Uptake of methyl-α-D-glucopyranoside (α-MG)
CS1-5-11D cells were seeded into a 96-well culture plate at a density of 3×10^4 cells/well and cultured for 2 days, and were used in the uptake assay. A mixture of non-labeled (Sigma) and ^14C-labeled α-MG (Amersham Pharmcia Biotec) was added to the uptake buffer (pH 7.4; containing 140 mM sodium chloride, 2 mM potassium chloride, 1 mM calcium chloride, 1 mM magnesium chloride, 10 mM 2-[4-(2-hydroxyethyl)-1-piperazinyl]ethane sulfonic acid, and 5 mM tris(hydroxymethyl)aminomethane) at the final concentration of 1 mM. A test compound was dissolved in dimethyl sulfoxide, and then appropriately diluted with distilled water. The test compound solution was added to the uptake buffer containing 1 mM α-MG, and designated as a measurement buffer. For the control group, the measurement buffer without any test compound was prepared. For measuring the basal uptake, a basal uptake measurement buffer which contains 140 mM chorine chloride instead of sodium chloride was prepared. After removing the culture medium of CS1-5-11D cells, 180 μL of the pre-treatment buffer (the basal uptake buffer without α-MG) was added to each well and incubated at 37° C. for 10 minutes. After repeating the same treatment, the pre-treatment buffer was removed. To each well was added 75 μL of the measurement buffer or the basal uptake buffer was added and incubated at 37° C. for 1 hour. After removing the measurement buffer, cells were washed twice with 180 μL per well of the washing buffer (the basal uptake buffer containing 10 mM non-labeled α-MG). The cells were solubilized by 75 μL per well of 0.2 mol/L sodium hydroxide. The cell lysates were transferred into PicoPlates (Packard), and then added 150 μL of MicroScint-40 (Packard) and mixed. Radioactivity was measured by means of micro-scintillation counter TopCount (Packard). One hundred % was set to the difference between the uptake in the control group and the basal uptake, and the uptake of methyl α-D-gluco-pyranoside at each drug concentration were calculated.

Another assay concerns diabetic rats. The assay is described as follows: Assay for inhibitory effects on blood glucose level increase in rats (liquid meal tolerance test in diabetic rat model). It counts as in vivo. Conditions: test compound 1 mg/kg orally, liquid meal 17.25 kcal/kg, mean ± S.E.; for Plasma glucose concentration 0.5 h: 0.5 hour after drug administration; for Plasma glucose concentration 1 h: 1 hour after drug administration; for Plasma glucose concentration 0 h: pretreatment (0 h). The procedure:
Assay for Inhibitory Effects on Blood Glucose Level Increase in rats
1) Preparation of Diabetic Rat Model
Male wistar rats (Japan Charles River), aged 8 weeks old, were injected nicotinamide (230 mg/kg) intraperitoneally. Fifteen minutes after injection, they were injected streptozotocin (85 mg/kg) intravenously from tail vain under anesthesia with ether. After a week, rats were fasted overnight and then glucose tolerance test (2 g/kg) was done.
2) Liquid Meal Tolerance Test
After overnight fasted, the diabetic rats were orally administered a test compound (1 mg/kg), which was dissolved in distilled water, in the drug-treating group, or distilled water alone in a control group. Immediately after the compound administration, 17.25 kcal/kg of liquid meal (No. 038, Control diet, assorted with dextrin and maltose; Oriental Yeast Co., Ltd.) was loaded orally. The blood was collected from tail artery immediately before and after administration with the time course, and treated with heparin immediately. The blood was centrifuged, and the plasma was collected to quantify the plasma glucose concentration by glucose oxidase method. The values in the table are presented as the mean ±S.E.

A word on the IC50: it is the concentration needed to halve the response being measured. A high value points to a need for much substance. “3-(β-D-Galactopyranosyloxy)-4-[(4-{3-[2-hydroxy-1-hydroxy-methyl-1-(methyl)ethylcarbamoyl]propyl}phenyl)methyl]-5-isopropyl-1H-pyrazole [Example 32]”: the IC50 against human SGLT1 stood at 220 nM. In the assay with diabetic rats, the “Plasma glucose concentration 0.5 h” value is recorded as 223 ± 20 mg/dL, the “Plasma glucose concentration 1 h” value is reported as 278 ± 32 mg/dL and the “Plasma glucose concentration 0 h” value came to 125 ± 8 mg/dL.

For the compound “3-(β-D-Glucopyranosyloxy)-4-({4-[3-(2-hydroxyethyl)-carbamoylpropyl]phenyl}methyl)-5-isopropyl-1H-pyrazole [Example 18]”, the IC50 on human SGLT1 came to 181 nM.

`CC(C)c1[nH]nc(O[C@@H]2O[C@H](CO)[C@@H](O)[C@H](O)[C@H]2O)c1Cc1ccc(CCCC(=O)NCCCN(CCO)CCO)cc1` [Example 15, 3-(β-D-Glucopyranosyloxy)-5-isopropyl-4-{[4-(3-{3-[bis(2-hydroxyethyl)amino]propylcarbamoyl}propyl)phenyl]methyl}-1H-pyrazole] registered an IC50 on human SGLT1 of 113 nM.

Turning to `CC(C)c1[nH]nc(O[C@@H]2O[C@H](CO)[C@@H](O)[C@H](O)[C@H]2O)c1Cc1ccc(CCCC(=O)NC(CO)(CO)CO)cc1` [Example 21, 3-(β-D-Glucopyranosyloxy)-4-[(4-{3-[2-hydroxy-1,1-bis-(hydroxymethyl)ethylcarbamoyl]propyl}phenyl)methyl]-5-isopropyl-1H-pyrazole], the midpoint of inhibition against human SGLT1, the IC50, lay at 12 nM. Besides, in the assay on diabetic rats, the “Plasma glucose concentration 0.5 h” value stood at 156 ± 15 mg/dL, the “Plasma glucose concentration 1 h” value amounted to 178 ± 19 mg/dL and the “Plasma glucose concentration 0 h” value came to 118 ± 9 mg/dL.

With `CC(C)c1[nH]nc(O[C@@H]2O[C@H](CO)[C@@H](O)[C@H](O)[C@H]2O)c1Cc1ccc(CCCC(=O)NC(C)(C)C(N)=O)cc1` [Example 24, 4-[(4-{3-[1-Carbamoyl-1-(methyl)ethylcarbamoyl]propyl}-phenyl)methyl]-3-(β-D-glucopyranosyloxy)-5-isopropyl-1H-pyrazole], on human SGLT1, 24 nM corresponded to half-maximal inhibition (IC50).

In the case of `CC(C)c1[nH]nc(O[C@@H]2O[C@H](CO)[C@@H](O)[C@H](O)[C@H]2O)c1Cc1ccc(/C=C/C(=O)NC(C)(CO)CO)cc1` [Example 27, 3-(β-D-Glucopyranosyloxy)-4-[(4-{(1E)-2-[2-hydroxy-1-hydroxymethyl-1-(methyl)ethylcarbamoyl]vinyl}phenyl)-methyl]-5-isopropyl-1H-pyrazole], on human SGLT1, the IC50 was 237 nM.

On human SGLT1, `CC(C)c1[nH]nc(O[C@@H]2O[C@H](CO)[C@@H](O)[C@H](O)[C@H]2O)c1Cc1ccc(/C=C/C(=O)NC(CO)(CO)CO)cc1` [Example 28, 3-(β-D-Glucopyranosyloxy)-4-[(4-{(1E)-2-[2-hydroxy-1,1-bis-(hydroxymethyl)ethylcarbamoyl]vinyl}phenyl)methyl]-5-isopropyl-1H-pyrazole] showed a half-inhibitory concentration (IC50) of 267 nM.

The compound `CC(C)c1[nH]nc(O[C@@H]2O[C@H](CO)[C@@H](O)[C@H](O)[C@H]2O)c1Cc1ccc(/C=C/C(=O)NC(C)(C)C(N)=O)cc1` [Example 29, 4-[(4-{(1E)-2-[1-Carbamoyl-1-(methyl)ethylcarbamoyl]vinyl}-phenyl)methyl]-3-(β-D-glucopyranosyloxy)-5-isopropyl-1H-pyrazole] registered a 50% inhibitory concentration (IC50) on human SGLT1 of 431 nM.

On to `CC(C)c1[nH]nc(O[C@@H]2O[C@H](CO)[C@@H](O)[C@H](O)[C@H]2O)c1Cc1ccc(CCCC(=O)NC(C)(C)C(=O)NCCO)cc1` [Example 30, 3-(β-D-Glucopyranosyloxy)-4-[(4-{3-[1-(2-hydroxyethyl-carbamoyl)-1-(methyl)ethylcarbamoyl]propyl}phenyl)methyl]-5-isopropyl-1H-pyrazole], for which the 50% inhibitory concentration (IC50) against human SGLT1 worked out at 52 nM. Also, in the assay with diabetic rats, the “Plasma glucose concentration 0.5 h” value amounted to 163 ± 8 mg/dL, the “Plasma glucose concentration 1 h” value was 187 ± 9 mg/dL and the “Plasma glucose concentration 0 h” value stood at 121 ± 6 mg/dL.

For `CC(C)c1[nH]nc(O[C@@H]2O[C@H](CO)[C@@H](O)[C@H](O)[C@H]2O)c1Cc1ccc(CCCC(=O)NC(C)(C)C(=O)NCC(N)=O)cc1` [Example 31, 4-[(4-{3-[1-Carbamoylmethylcarbamoyl-1-(methyl)ethyl-carbamoyl]propyl}phenyl)methyl]-3-(β-D-glucopyranosyloxy)-5-isopropyl-1H-pyrazole], at human SGLT1, the IC50 came to 96 nM.

`CC(C)c1[nH]nc(O[C@@H]2O[C@H](CO)[C@H](O)[C@H](O)[C@H]2O)c1Cc1ccc(CCCC(=O)NC(C)(C)C(N)=O)cc1` [Example 33, 4-[(4-{3-[1-Carbamoyl-1-(methyl)ethylcarbamoyl]propyl}-phenyl)methyl]-3-(β-D-galactopyranosyloxy)-5-isopropyl-1H-pyrazole] yielded an IC50 against human SGLT1 of 174 nM. Also, in the assay on diabetic rats, the “Plasma glucose concentration 0.5 h” value was determined as 207 ± 8 mg/dL, the “Plasma glucose concentration 1 h” value was determined as 251 ± 21 mg/dL and the “Plasma glucose concentration 0 h” value is on record as 127 ± 11 mg/dL.

As to `CC(C)c1[nH]nc(O[C@@H]2O[C@H](CO)[C@@H](O)[C@H](O)[C@H]2O)c1Cc1ccc(CCCS(=O)(=O)NCCN)cc1` [Example 34, 4-({4-[3-(2-Aminoethylsulfamoyl)propyl]phenyl}methyl)-3-(β-D-glucopyranosyloxy)-5-isopropyl-1H-pyrazole], half-maximal inhibition at human SGLT1 (IC50) was put at 245 nM.

Compound `CC(C)c1[nH]nc(O[C@@H]2O[C@H](CO)[C@@H](O)[C@H](O)[C@H]2O)c1Cc1ccc(CCCS(=O)(=O)NC(C)(C)C(N)=O)cc1` [Example 35, 4-[(4-{3-[1-Carbamoyl-1-(methyl)ethylsulfamoyl]propyl}-phenyl)methyl]-3-(β-D-glucopyranosyloxy)-5-isopropyl-1H-pyrazole] showed an IC50 against human SGLT1 of 115 nM.

For `CC(C)c1[nH]nc(O[C@@H]2O[C@H](CO)[C@H](O)[C@H](O)[C@H]2O)c1Cc1ccc(CCCC(=O)NC(C)(C)C(=O)N2CCNCC2)cc1` [Example 57, 3-(β-D-Galactopyranosyloxy)-5-isopropyl-4-{[4-(3-{1-[(piperazin-1-yl)carbonyl]-1-(methyl)ethylcarbamoyl}-propyl)phenyl]methyl}-1H-pyrazole], 39 nM corresponded to half-maximal inhibition at human SGLT1 (IC50).

Source of the values: patent US7655632B2, “Pyrazole derivative, medicinal composition containing the same, medicinal use thereof, and intermediate for production thereof” (Kissei Pharmaceutical Co., Ltd., priority 2002, dated 2010).
